Reference: BindingDB's records for doi:10.1021/jm00039a015 (Abbott Laboratories, 1994)

Molecular target: Platelet-activating factor receptor (Oryctolagus cuniculus)
Assay: Antagonist activity against platelet activating factor (PAF) receptor in rabbit platelet membranes using [3H]C18-PAF as radioligand

Structure (SMILES) | Ki [nM]
NC(=O)Cn1cc(C(=O)[C@@H]2CSC(c3cccnc3)N2)c2ccccc21 (stereo partly drawn) [2-[3-((R)-2-Pyridin-3-yl-thiazolidine-4-carbonyl)-indol-1-yl]-acetamide] | 5
O=C(c1ccccc1)c1cccc(NC(=O)[C@@H]2CSC(c3cccnc3)N2)c1 (stereo partly drawn) [(R)-2-Pyridin-3-yl-thiazolidine-4-carboxylic acid (3-benzoyl-phenyl)-amide] | 7.7
O=C(c1c[nH]c2cc(F)ccc12)[C@@H]1CSC(c2cccnc2)N1 (stereo partly drawn) [(6-Fluoro-1H-indol-3-yl)-((R)-2-pyridin-3-yl-thiazolidin-4-yl)-methanone] | 5.6
CN(C)C(=O)n1cc(C(=O)[C@@H]2CSC(c3cccnc3)N2)c2ccc(Br)cc21 (stereo partly drawn) [6-Bromo-3-((R)-2-pyridin-3-yl-thiazolidine-4-carbonyl)-indole-1-carboxylic acid dimethylamide] | 0.6
O=C(c1c[nH]c2cc(OCc3ccc(F)cc3)ccc12)[C@@H]1CSC(c2cccnc2)N1 (stereo partly drawn) [[6-(4-Fluoro-benzyloxy)-1H-indol-3-yl]-((R)-2-pyridin-3-yl-thiazolidin-4-yl)-methanone] | 1.6
CN(C)C(=O)n1cc(C(=O)[C@@H]2CSC(c3cccnc3)N2)c2ccc(-c3cccnc3)cc21 (stereo partly drawn) [6-Pyridin-3-yl-3-((R)-2-pyridin-3-yl-thiazolidine-4-carbonyl)-indole-1-carboxylic acid dimethylamide] | 40
CN(C)C(=O)n1cc(C(=O)[C@@H]2CSC(c3cccnc3)N2)c2ccc(-c3ccc(F)cc3)cc21 (stereo partly drawn) [6-(4-Fluoro-phenyl)-3-((R)-2-pyridin-3-yl-thiazolidine-4-carbonyl)-indole-1-carboxylic acid dimethylamide] | 9.2
CN(C)C(=O)n1cc(C(=O)[C@@H]2CSC(c3cccnc3)N2)c2ccc(Oc3ccc(F)cc3)cc21 (stereo partly drawn) [6-(4-Fluoro-phenoxy)-3-((R)-2-pyridin-3-yl-thiazolidine-4-carbonyl)-indole-1-carboxylic acid dimethylamide] | 2.2
CN(C)C(=O)n1cc(C(=O)[C@@H]2CSC(c3cccnc3)N2)c2ccc(Cl)cc21 (stereo partly drawn) [6-Chloro-3-((R)-2-pyridin-3-yl-thiazolidine-4-carbonyl)-indole-1-carboxylic acid dimethylamide] | 1
CCOC(=O)n1cc(C(=O)[C@@H]2CSC(c3cccnc3)N2)c2ccccc21 (stereo partly drawn) [3-((R)-2-Pyridin-3-yl-thiazolidine-4-carbonyl)-indole-1-carboxylic acid ethyl ester] | 4.4
CN(C)C(=O)n1cc(C(=O)[C@@H]2CSC(c3cccnc3)N2)c2ccc(OCc3ccc(F)cc3)cc21 (stereo partly drawn) [6-(4-Fluoro-benzyloxy)-3-((R)-2-pyridin-3-yl-thiazolidine-4-carbonyl)-indole-1-carboxylic acid dimethylamide] | 1.8
O=C(c1cn(C(=O)c2ccc(Cl)cc2)c2ccccc12)[C@@H]1CSC(c2cccnc2)N1 (stereo partly drawn) [(4-Chloro-phenyl)-[3-((R)-2-pyridin-3-yl-thiazolidine-4-carbonyl)-indol-1-yl]-methanone] | 3.4
CN(C)C(=O)n1cc(C(=O)[C@@H]2CSC(c3cccnc3)N2)c2ccc(C#Cc3ccccc3)cc21 (stereo partly drawn) [6-Phenylethynyl-3-((R)-2-pyridin-3-yl-thiazolidine-4-carbonyl)-indole-1-carboxylic acid dimethylamide] | 1.3
CN(C)C(=O)n1cc(C(=O)[C@@H]2CSC(c3cccnc3)N2)c2ccccc21 (stereo partly drawn) [3-((R)-2-Pyridin-3-yl-thiazolidine-4-carbonyl)-indole-1-carboxylic acid dimethylamide] | 0.8
O=C(c1c[nH]c2ccccc12)[C@@H]1CS[C@H](c2cccnc2)N1C(=O)C(F)(F)F | 1640
CNC(=O)Cn1cc(C(=O)[C@@H]2CSC(c3cccnc3)N2)c2ccccc21 (stereo partly drawn) [N-Methyl-2-[3-((R)-2-pyridin-3-yl-thiazolidine-4-carbonyl)-indol-1-yl]-acetamide] | 2.4
CCS(=O)(=O)n1cc(C(=O)[C@@H]2CSC(c3cccnc3)N2)c2ccc(OCc3ccccc3)cc21 (stereo partly drawn) [(6-Benzyloxy-1-ethanesulfonyl-1H-indol-3-yl)-((R)-2-pyridin-3-yl-thiazolidin-4-yl)-methanone] | 8.1
CN(C)C(=O)n1cc(C(=O)[C@@H]2CSC(c3cccnc3)N2)c2cccc(OCc3ccccc3)c21 (stereo partly drawn) [7-Benzyloxy-3-((R)-2-pyridin-3-yl-thiazolidine-4-carbonyl)-indole-1-carboxylic acid dimethylamide] | 14
COC(=O)CCn1cc(C(=O)[C@@H]2CSC(c3cccnc3)N2)c2ccccc21 (stereo partly drawn) [3-[3-((R)-2-Pyridin-3-yl-thiazolidine-4-carbonyl)-indol-1-yl]-propionic acid methyl ester] | 4.6
Cc1c(C(=O)[C@@H]2CSC(c3cccnc3)N2)c2ccccc2n1C(=O)OC(C)(C)C (stereo partly drawn) [2-Methyl-3-((R)-2-pyridin-3-yl-thiazolidine-4-carbonyl)-indole-1-carboxylic acid tert-butyl ester; compound with oxalic acid] | 9.5
CC(C)(C)C(=O)n1cc(C(=O)[C@@H]2CSC(c3cccnc3)N2)c2ccccc21 (stereo partly drawn) [2,2-Dimethyl-1-[3-((R)-2-pyridin-3-yl-thiazolidine-4-carbonyl)-indol-1-yl]-propan-1-one] | 8.8

Structure (SMILES) | Ki [nM]
CN(C)C(=O)n1cc(C(=O)[C@@H]2CSC(c3cccnc3)N2)c2ccc(C(=O)c3ccccc3)cc21 (stereo partly drawn) [6-Benzoyl-3-((R)-2-pyridin-3-yl-thiazolidine-4-carbonyl)-indole-1-carboxylic acid dimethylamide] | 1
O=C(Nc1cccc(Cl)c1)[C@@H]1CSC(c2cccnc2)N1 (stereo partly drawn) [(R)-2-Pyridin-3-yl-thiazolidine-4-carboxylic acid (3-chloro-phenyl)-amide] | 208
O=C(c1c[nH]c2cc(Oc3ccc(F)cc3)ccc12)[C@@H]1CSC(c2cccnc2)N1 (stereo partly drawn) [[6-(4-Fluoro-phenoxy)-1H-indol-3-yl]-((R)-2-pyridin-3-yl-thiazolidin-4-yl)-methanone] | 1.9
CC(C)(C)OC(=O)n1cc(C(=O)[C@@H]2CSC(c3cccnc3)N2)c2ccc(OCc3ccccc3)cc21 (stereo partly drawn) [6-Benzyloxy-3-((R)-2-pyridin-3-yl-thiazolidine-4-carbonyl)-indole-1-carboxylic acid tert-butyl ester] | 1
Cc1[nH]c2ccccc2c1C(=O)[C@@H]1CSC(c2cccnc2)N1 (stereo partly drawn) [(2-Methyl-1H-indol-3-yl)-((R)-2-pyridin-3-yl-thiazolidin-4-yl)-methanone] | 23
CC(C)(C)OC(=O)n1cc(C(=O)[C@@H]2CSC(c3cccnc3)N2)c2ccccc21 (stereo partly drawn) [3-((R)-2-Pyridin-3-yl-thiazolidine-4-carbonyl)-indole-1-carboxylic acid tert-butyl ester] | 1
O=C(O)Cn1cc(C(=O)[C@@H]2CSC(c3cccnc3)N2)c2ccccc21 (some centres not stated) [[3-(2-Pyridin-3-yl-thiazolidine-4-carbonyl)-indol-1-yl]-acetic acid] | 30
Cc1ccc2c(c1)c(C(=O)[C@@H]1CSC(c3cccnc3)N1)c(C)n2C(=O)N(C)C (some centres not stated) [2,5-Dimethyl-3-(2-pyridin-3-yl-thiazolidine-4-carbonyl)-indole-1-carboxylic acid dimethylamide] | 13
Cc1ccc2c(c1)c(C(=O)[C@@H]1CSC(c3cccnc3)N1)c(C)n2C(=O)N1CCOCC1 (stereo partly drawn) [[2,5-Dimethyl-3-((R)-2-pyridin-3-yl-thiazolidine-4-carbonyl)-indol-1-yl]-morpholin-4-yl-methanone] | 36
O=C(C1CSC(c2cccnc2)N1)n1ccc2c(Cl)cccc21 (configuration not stated) [(4-Chloro-indol-1-yl)-(2-pyridin-3-yl-thiazolidin-4-yl)-methanone] | 33
CCS(=O)(=O)n1cc(C(=O)[C@@H]2CSC(c3cccnc3)N2)c2ccccc21 (stereo partly drawn) [(1-Ethanesulfonyl-1H-indol-3-yl)-((R)-2-pyridin-3-yl-thiazolidin-4-yl)-methanone] | 18
O=C(c1c[nH]c2cc(-c3ccccc3)ccc12)[C@@H]1CSC(c2cccnc2)N1 (stereo partly drawn) [(6-Phenyl-1H-indol-3-yl)-((R)-2-pyridin-3-yl-thiazolidin-4-yl)-methanone] | 14
O=C(c1c[nH]c2ccccc12)[C@@H]1CS[C@@H](c2cccnc2)N1C(=O)C(F)(F)F | 7100
O=C(C1CSC(c2cccnc2)N1)n1ccc2cc(OCc3ccccc3)ccc21 (configuration not stated) [(5-Benzyloxy-indol-1-yl)-(2-pyridin-3-yl-thiazolidin-4-yl)-methanone] | 15
Cc1ccc2[nH]c(C)c(C(=O)[C@@H]3CSC(c4cccnc4)N3)c2c1 (stereo partly drawn) [(2,5-Dimethyl-1H-indol-3-yl)-((R)-2-pyridin-3-yl-thiazolidin-4-yl)-methanone] | 33
COCCOc1ccc2c(C(=O)[C@@H]3CSC(c4cccnc4)N3)cn(C(=O)N(C)C)c2c1 (stereo partly drawn) [6-(2-Methoxy-ethoxy)-3-((R)-2-pyridin-3-yl-thiazolidine-4-carbonyl)-indole-1-carboxylic acid dimethylamide] | 3
Cc1ccc2c(C(=O)[C@@H]3CSC(c4cccnc4)N3)c[nH]c2c1 (stereo partly drawn) [(6-Methyl-1H-indol-3-yl)-((R)-2-pyridin-3-yl-thiazolidin-4-yl)-methanone] | 3.4
O=C([C@@H]1CSC(c2cccnc2)N1)n1ccc2ccc(OCc3ccccc3)cc21 (stereo partly drawn) [(6-Benzyloxy-indol-1-yl)-((R)-2-pyridin-3-yl-thiazolidin-4-yl)-methanone] | 52
CN(C)C(=O)n1cc(C(=O)[C@@H]2CSC(c3cccnc3)N2)c2ccc(OCc3ccccc3)cc21 (stereo partly drawn) [6-Benzyloxy-3-((R)-2-pyridin-3-yl-thiazolidine-4-carbonyl)-indole-1-carboxylic acid dimethylamide; compound with oxalic acid] | 1.4
Cc1nnc2n1-c1sc3c(c1C(c1ccccc1Cl)=NC2)CC(C(=O)N1CCOCC1)C3 (configuration not stated) [6-(2-chlorophenyl)-1-methyl-8,9-dihydro-4H,7H-cyclopenta[4,5]thieno[3,2-f][1,2,4]triazolo[4,3-a][1,4]diazepin-9-yl-1,4-oxazinan-4-ylmethanone (WEB 2170)] | 29
CN(C)C(=O)n1cc(C(=O)[C@@H]2CSC(c3cccnc3)N2)c2ccc(-c3ccccc3)cc21 (stereo partly drawn) [6-Phenyl-3-((R)-2-pyridin-3-yl-thiazolidine-4-carbonyl)-indole-1-carboxylic acid dimethylamide] | 3.6
